Test results reported in ChEMBL document CHEMBL6109153, “Development of Membrane-Targeting Osthole Derivatives Containing Pyridinium Quaternary Ammonium Moieties with Potent Anti-Methicillin-Resistant Staphylococcus aureus Properties” (J Med Chem, 2025).
Calls of active or inactive are those of the source. The rule behind the calls is not given here.

Tests used:
[1] = Toxicity in KM mouse assessed as erythema on dorsal skin at 30 mg/kg, sc; assay type: organism-based; conditions: in vivo
Staphylococcus aureus [2] = assay: Disruption of cell membrane in methicillin-resistant Staphylococcus aureus M11 assessed as wrinkling in cell membrane at 4 ug/ml incubated for 4 hrs by SEM analysis; assay type: functional, organism-based; conditions: dose 4.0 µg/ml
Staphylococcus aureus [3] = assay: Antibacterial activity against methicillin-resistant Staphylococcus aureus M11 incubated for 16 to 20 hrs by broth microdilution method; assay type: functional; conditions: time 16-20 hrs
[4] = Toxicity in BALB/c mouse assessed as normal appetite at 5 to 40 mg/kg, ip measured for 7 days; assay type: organism-based; conditions: in vivo, 168 h, dose 5-40 mg/kg, time 7 day
Staphylococcus aureus [5] = assay: Antibacterial activity against methicillin-resistant Staphylococcus aureus M11 up to 128 ug/ml in presence of 32 ug/ml peptidoglycan incubated for 16 to 18 hrs; assay type: functional; conditions: dose <= 128 µg/ml, time 16-18 hrs
Staphylococcus aureus [6] = assay: Induction of cell permeability in methicillin-resistant Staphylococcus aureus M11 assessed as fold increase in fluorescence intensity at 32 times MIC by SYTOX Green dye based analysis relative to control; assay type: functional
Staphylococcus aureus [7] = assay: Antibacterial activity against methicillin-resistant Staphylococcus aureus M14 incubated for 16 to 20 hrs by broth microdilution method; assay type: functional; conditions: time 16-20 hrs
[8] = Toxicity in BALB/c mouse assessed as normal behavior at 5 to 40 mg/kg, ip measured for 7 days; assay type: organism-based; conditions: in vivo, 168 h, dose 5-40 mg/kg, time 7 day
Staphylococcus aureus [9] = assay: Antibacterial activity against methicillin-resistant Staphylococcus aureus M20 incubated for 16 to 20 hrs by broth microdilution method; assay type: functional; conditions: time 16-20 hrs
[10] = Toxicity in KM mouse assessed as abnormality in kidney at 20 mg/kg, sc by H and E staining based analysis; assay type: organism-based; conditions: in vivo
Staphylococcus aureus [11] = assay: Disruption of cell membrane in methicillin-resistant Staphylococcus aureus M11 assessed as roughness in cell membrane at 4 ug/ml incubated for 4 hrs by SEM analysis; assay type: functional, organism-based; conditions: dose 4.0 µg/ml
[12] = Toxicity in KM mouse assessed as animal death at 40 mg/kg, sc; assay type: organism-based; conditions: in vivo
[13] = Toxicity in BALB/c mouse model of Sepsis infected with methicillin-resistant Staphylococcus aureus M11 assessed as pathological change in kidney at 4 to 8 mg/kg measured after 24 hrs by H and E staining based analysis; assay type: organism-based; conditions: in vivo, dose 4-8 mg/kg
Staphylococcus aureus [14] = assay: Antibacterial activity against methicillin-resistant Staphylococcus aureus M11 assessed as fold increase in MIC up to 128 ug/ml in presence of 128 ug/ml peptidoglycan incubated for 16 to 18 hrs relative to control; assay type: functional; conditions: dose <= 128 µg/ml; time 16-18 hrs
Escherichia coli = assay: Antibacterial activity against Escherichia coli ATCC 25922 incubated for 16 to 20 hrs by broth microdilution method; assay type: functional; conditions: time 16-20 hrs
Staphylococcus aureus [15] = assay: Disruption of cell membrane in methicillin-resistant Staphylococcus aureus M11 assessed as fold increase in DNA leakage at 4 ug/ml incubated for 4 hrs by micro-spectrophotometric analysis relative to control; assay type: functional; conditions: dose 4 µg/ml
Staphylococcus aureus [16] = assay: Antibacterial activity against methicillin-resistant Staphylococcus aureus M11 infected in BALB/c mouse model of Sepsis assessed as reduction in bacterial count in skin tissues at 4 mg/kg measured after 24 hrs relative to control; assay type: functional; set-up: scale not given: the % may be the effect or the level left
Staphylococcus aureus [17] = assay: Antibacterial activity against methicillin-resistant Staphylococcus aureus M21 incubated for 16 to 20 hrs by broth microdilution method; assay type: functional; conditions: time 16-20 hrs
Staphylococcus aureus [18] = assay: Antibacterial activity against methicillin-resistant Staphylococcus aureus M11 upto 128 ug/ml in presence of phosphatidylethanolamine incubated for 16 to 18 hrs; assay type: functional, organism-based; conditions: dose <= 128.0 µg/ml, time 16-18 hrs
Staphylococcus aureus [19] = assay: Antibacterial activity against methicillin-resistant Staphylococcus aureus M12 incubated for 16 to 20 hrs by broth microdilution method; assay type: functional; conditions: time 16-20 hrs
Staphylococcus aureus [20] = assay: Antibacterial activity against methicillin-resistant Staphylococcus aureus M11 up to 128 ug/ml in presence of cardiolipin incubated for 16 to 18 hrs; assay type: functional, organism-based; conditions: dose <= 128.0 µg/ml, time 16-18 hrs
Staphylococcus aureus [21] = assay: Antibacterial activity against methicillin-resistant Staphylococcus aureus M17 incubated for 16 to 20 hrs by broth microdilution method; assay type: functional; conditions: time 16-20 hrs
Staphylococcus aureus [22] = assay: Antibacterial activity against methicillin-resistant Staphylococcus aureus M11 infected in BALB/c mouse model of Sepsis assessed as reduction in bacterial count in skin tissues at 8 mg/kg measured after 24 hrs relative to control; assay type: functional; set-up: scale not given: the % may be the effect or the level left
Staphylococcus aureus [23] = assay: Disruption of cell membrane in methicillin-resistant Staphylococcus aureus M11 assessed as shrinkage in cell membrane at 4 ug/ml incubated for 4 hrs by SEM analysis; assay type: functional, organism-based; conditions: dose 4.0 µg/ml
Staphylococcus aureus [24] = assay: Disruption of cell membrane in methicillin-resistant Staphylococcus aureus M11 assessed as increase in red fluorescence in nuclei at 4 ug/ml incubated for 4 hrs by DAPI/PI staining based analysis; assay type: functional, organism-based; conditions: dose 4.0 µg/ml
[25] = Toxicity in BALB/c mouse assessed as change in serum biochemical parameters at 10 mg/kg, ip measured for 7 days; assay type: organism-based; conditions: in vivo, 168 h, time 7 day
[26] = Toxicity in BALB/c mouse assessed as mortality rate at 20 mg/kg, ip measured for 7 days; assay type: organism-based; conditions: in vivo, time 7 day, read-out: Activity
[27] = Toxicity in BALB/c mouse assessed as change in blood routine parameters at 10 mg/kg, ip measured for 7 days; assay type: organism-based; conditions: in vivo, 168 h, time 7 day
Staphylococcus aureus [28] = assay: Antibacterial activity against methicillin-resistant Staphylococcus aureus M23 incubated for 16 to 20 hrs by broth microdilution method; assay type: functional; conditions: time 16-20 hrs
Staphylococcus aureus [29] = assay: Antibacterial activity against methicillin-resistant Staphylococcus aureus M11 infected in BALB/c mouse model of Sepsis assessed as smooth in inner epidermis at 8 mg/kg measured after 24 hrs; assay type: functional, organism-based
Staphylococcus aureus [30] = assay: Antibacterial activity against methicillin-resistant Staphylococcus aureus M11 infected in BALB/c mouse model of Sepsis assessed as reduction in abscess size on back at 4 mg/kg measured after 24 hrs; assay type: functional, organism-based
[31] = Toxicity in BALB/c mouse model of Sepsis infected with methicillin-resistant Staphylococcus aureus M11 assessed as pathological change in spleen at 4 to 8 mg/kg measured after 24 hrs by H and E staining based analysis; assay type: organism-based; conditions: in vivo, dose 4-8 mg/kg
[32] = Toxicity in BALB/c mouse model of Sepsis infected with methicillin-resistant Staphylococcus aureus M11 assessed as survival rate at 20 mg/kg, ip measured after 7 days; assay type: organism-based; conditions: in vivo, 168 h, time 7 day
[33] = Toxicity in BALB/c mouse assessed as lesions in tissues of organs at 30 mg/kg, ip measured for 7 days by H and E staining based analysis; assay type: organism-based; conditions: in vivo, 168 h, time 7 day
[34] = Toxicity in BALB/c mouse assessed as change in blood routine parameters at 30 mg/kg, ip measured for 7 days; assay type: organism-based; conditions: in vivo, 168 h, time 7 day
[35] = Toxicity in KM mouse assessed as adverse reactions at <=30 mg/kg, sc; assay type: organism-based; conditions: in vivo
[36] = Toxicity in BALB/c mouse assessed as mortality rate at 40 mg/kg, ip measured for 7 days; assay type: organism-based; conditions: in vivo, time 7 day, read-out: Activity
[37] = Toxicity in BALB/c mouse model of Sepsis infected with methicillin-resistant Staphylococcus aureus M11 assessed as survival rate at 30 mg/kg, ip measured after 7 days; assay type: organism-based; conditions: in vivo, 168 h, time 7 day
[38] = Toxicity in KM mouse assessed as abnormality in lung at 30 mg/kg, sc by H and E staining based analysis; assay type: organism-based; conditions: in vivo
[39] = Toxicity in KM mouse assessed as erythema on dorsal skin at <=30 mg/kg, sc; assay type: organism-based; conditions: in vivo

| SMILES | Activity (Staphylococcus aureus [2]) | MIC (Staphylococcus aureus [3]) | Activity [4] | MIC (Staphylococcus aureus [5]) | fold change (FC) (Staphylococcus aureus [6]) | MIC (Staphylococcus aureus [7]) | Activity [8] | MIC (Staphylococcus aureus [9]) | Activity (Staphylococcus aureus [11]) | Activity [12] | Activity [13] | fold change (FC) (Staphylococcus aureus [14]) | MIC (Escherichia coli) | fold change (FC) (Staphylococcus aureus [15]) | Activity (Staphylococcus aureus [16]) | MIC (Staphylococcus aureus [17]) | Activity (Staphylococcus aureus [18]) | MIC (Staphylococcus aureus [19]) | Activity (Staphylococcus aureus [20]) | MIC (Staphylococcus aureus [21]) | further results |
| --- | --- | --- | --- | --- | --- | --- | --- | --- | --- | --- | --- | --- | --- | --- | --- | --- | --- | --- | --- | --- | --- |
| CCCCCNC(=O)C[n+]1ccc(SCCCCCOc2ccc3ccc(=O)oc3c2CC=C(C)C)cc1.[Br-] | Active | 0.5 µg/mL | Non-toxic | 1 µg/mL | ~10 | 0.5 µg/mL | Non-toxic | 0.5 µg/mL | Active | Non-toxic | Non-toxic | 32 | > 128 µg/mL | ~2 | 98.702% | 0.5 µg/mL | Active; Compound Showed Only Minor Or No Change In Mic | 1 µg/mL | Active; Compound Showed Only Minor Or No Change In Mic | 0.5 µg/mL | Activity [1]: Toxic; Activity [10]: Non-toxic; Activity (Staphylococcus aureus [22]): 99.985%; Activity (Staphylococcus aureus [23]): Active; Activity (Staphylococcus aureus [24]): Active; Activity [25]: Non-toxic; mortality at 168 h [26]: 83.3%; Activity [27]: Non-toxic; MIC (Staphylococcus aureus [28]): 0.5 µg/mL; Activity (Staphylococcus aureus [29]): Active; Activity (Staphylococcus aureus [30]): Active; Activity [31]: Non-toxic |
| CC(C)=CCc1c(OCCCCSc2cc[n+](CC(=O)N(CC(C)C)CC(C)C)cc2)ccc2ccc(=O)oc12.[Br-] | Active | 0.5 µg/mL | Non-toxic | 1 µg/mL | ~10 | 0.5 µg/mL | Non-toxic | 0.5 µg/mL | Active | Non-toxic | Non-toxic | 32 | > 128 µg/mL | ~2 | 98.886% | 0.5 µg/mL | Active; Compound Showed Only Minor Or No Change In Mic | 1 µg/mL | Active; Compound Showed Only Minor Or No Change In Mic | 0.5 µg/mL | Survival [32]: 66.7%; Activity [33]: Non-toxic; Activity [34]: Non-toxic; Activity [35]: Non-toxic; mortality at 168 h [36]: 83.3%; Survival [37]: 100%; Activity (Staphylococcus aureus [22]): 99.994%; Activity (Staphylococcus aureus [23]): Active; Activity (Staphylococcus aureus [24]): Active; Activity [38]: Non-toxic; MIC (Staphylococcus aureus [28]): 0.5 µg/mL; Activity (Staphylococcus aureus [29]): Active; Activity (Staphylococcus aureus [30]): Active; Activity [31]: Non-toxic; Activity [39]: Non-toxic |
